Measurements as given in patent publication US20250011368A1, “DLL3 TARGETING PEPTIDES AND CONSTRUCTS THEREOF” (MARIANA ONCOLOGY INC., priority 2023, published 2025).
Numbered stars: 1 amine (or outer) side, 2 acyl side, 3 side chain; on linkers, the order of the positions; unused ones are H or OH. Bridge positions count the residues as written; N and C are the ends. Square brackets hold non-standard residues; d marks the D form. Peptide text beside a SMILES is read from it. * marks the point of attachment. Ala(piperidin-4-yl) = O=C([C@H](CC1CCN([*:3])CC1)N[*:1])[*:2]; DOTA = O=C(O)CN1CCN(CC(=O)O)CCN(CC(=O)*)CCN(CC(=O)O)CC1; 2Nal = N[C@@H](Cc1ccc2ccccc2c1)C(=O)O; 3Pal = N[C@@H](Cc1cccnc1)C(=O)O; 4Pal = N[C@@H](Cc1ccncc1)C(=O)O

Experiments:
[1] = biological target: T1, human DLL3 (Homo sapiens, UniProt Q9NYJ7); assay: Affinity determination by Surface Plasmon Resonance (SPR); type: binding; conditions: 25° C., biotinylated human DLL3 immobilized on streptavidin sensor chip, 1:1 binding model; read-out: SPR KD
T1 sequence (Q9NYJ7 27-618): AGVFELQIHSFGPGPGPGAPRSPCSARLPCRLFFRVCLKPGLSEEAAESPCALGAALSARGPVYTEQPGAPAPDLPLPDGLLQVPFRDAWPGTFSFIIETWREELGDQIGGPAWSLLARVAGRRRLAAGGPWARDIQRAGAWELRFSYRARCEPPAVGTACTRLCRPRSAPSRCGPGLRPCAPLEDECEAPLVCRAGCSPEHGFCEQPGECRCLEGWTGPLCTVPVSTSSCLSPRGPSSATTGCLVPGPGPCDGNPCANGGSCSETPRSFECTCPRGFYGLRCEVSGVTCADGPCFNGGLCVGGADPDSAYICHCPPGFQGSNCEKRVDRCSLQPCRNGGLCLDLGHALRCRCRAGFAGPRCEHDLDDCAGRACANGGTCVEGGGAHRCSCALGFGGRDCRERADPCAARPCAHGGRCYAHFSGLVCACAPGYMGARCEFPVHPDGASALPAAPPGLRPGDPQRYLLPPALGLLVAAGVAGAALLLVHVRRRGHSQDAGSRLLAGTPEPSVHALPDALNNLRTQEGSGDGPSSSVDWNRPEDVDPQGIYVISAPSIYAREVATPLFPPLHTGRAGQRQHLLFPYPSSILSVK
Procedure, shortened: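 Kinetic and affinity constants were derived by fitting sensorgrams to a 1:1 binding model. Graded compound concentrations flowed at 100 μL/minute in 20 mM phosphate running buffer with 2% DMSO over streptavidin-immobilized biotinylated human DLL3, reference-subtracted.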

[2] = test system: CT26.DLL3 cells; assay: Cell binding (total uptake) of [177Lu]Lu-test peptide, CT26.DLL3 cells; type: cell-based; conditions: 1 hour at 37° C.
Method: (§1) [^177Lu]LuCl3 was received from venders in HCl solution. For every mCi of [^177Lu]LuCl3 added to the reaction vial (1.5 mL Eppendorf vial), ammonium acetate buffer (0.2 M, pH 4.9, 100 μL, containing 1% w/v ascorbic acid and 6% v/v ethanol) and peptide conjugate (1 nmol). A peptide conjugate of the present disclosure is also referred to herein as a “chelator-peptide”. The pH of the solution was determined to be approximately 5 by using pH strips. The reaction vial was incubated at 80° C., 700 RPM for 17-20 minutes. A sample from the reaction was analyzed by RP-HPLC using an Agilent Infinity II 1260 HPLC to determine reaction completion and radiochemical purity of [^177Lu]Lu-chelator-peptide. HPLC conditions: Waters XBridge BEH C18 Column, 130 Å, 3.5 um, 4.6 mm×250 mm; mobile phase: Solvent A=water (with 0.1% formic acid), solvent B=acetonitrile (with 0.1% formic acid). Gradients: 25-45% B in 10 minutes, 45-65% B in 12 minutes, 65-90% in 6 minutes at a flow rate of 0.5 mL/minute. Required amounts of the product was formulated in 1% PBSA for cell studies.
(§2) The study was conducted using SHP-77, CT26.WT, and CT26.DLL3 cells (Table 7) Adherent cell studies: The cells were cultured in appropriate culture media (20 mL) in tissue culture treated T150 flasks at 37° C. and 5% CO2. Adherent cells were detached (60-70% confluent) using 5 mL Versene at 37° C. for 3 minutes. After confirming the viability using countess and count of detached cells using Trypan blue, the cells were centrifuged at 4° C. for 5 minutes (1,000 rpm). The cell pellet obtained was washed once with PBS and resuspended in 1% PBSA to obtain the desired cell concentration (5-25 million cells/mL).
(§3) Cell numbers used for the assay were in the range of 5 million cells/condition −25 million cells/condition.
(§4) Total uptake: Cells were incubated with 300 μL (0.8 μCi) of the incubation buffer (containing radiolabeled peptide [^177Lu] Lu-test peptide) for 1 hour at 37° C. (Table 8). Post incubation, the cells were pelleted and washed 2 times using cold PBS+1% BSA. The supernatant and washes were combined and counted together as “unbound fraction” in a gamma counter. The cells were then resuspended in 300 μL of 1% PBS+1% BSA and counted in the gamma counter as “bound fraction”.
(§5) In these Tables, “A” represents %≤25; “B” represents 25<%≤50; “C” represents %>50.

[3] = test system: CT26.DLL3 cells; assay: Internalization (out of bound fraction) of [177Lu]Lu-test peptide, CT26.DLL3 cells; type: cell-based; conditions: 1 hour at 37° C., glycine pH 2.5 wash
Method: as §1, §2, §3, §4
Internalization: The resuspended cells in 300 μl of 1% PBSA and counted in the gamma counter as “bound fraction” were collected in 1.5 mL Eppendorf tube and pelleted. The pelleted cells were incubated with 300 μl of 50 mM Glycine pH=2.5 for 3 minutes and then pelleted discarding the supernatant. This process was repeated one more time. The pelleted cells were washed with 300 μl of cold 1% PBSA and then resuspended in 300 μl 0.3M NaOH. This was counted in the gamma counter as “internalized fraction”.
as §5

[4] = test system: SHP-77 tumors; assay: Ex vivo biodistribution of radiolabeled peptides in nude mice bearing SHP-77 tumors; conditions: [177Lu]Lu labelling, nude mice bearing SHP-77 tumors (n = 3), 24 hours post-injection
Method: Mice were intravenously injected (via the lateral tail vein) with a bolus dose of the radiolabeled peptides for ex vivo biodistribution studies when tumor volumes were in range of 200-400 mm^3 for xenograft mice and when age of the mice was 5-7 weeks for tumor naïve mice studies. To assess the amount of radionuclide injected into individual mice the syringe was assayed in a dose calibrator before and after injection for [^177Lu]Lu-peptide.
Mice were euthanized at pre-determined time points and selected tissues were resected and collected into pre-weighed tubes. The tubes were then reweighed post resection, the difference giving the weight of each tissue. Radioactivity in each tissue was measured using a gamma counter. Counts were decay corrected to the time of injection and percentage of injected activity per gram (% IA/g) was calculated for each tissue based on the injected activity into each individual mouse. Injected activity was converted to counts based on the sensitivity of the gamma counter. The counts in tissue were then converted to the percentage of injected activity and this was divided by the mass of tissue to give % IA/g.

Row | Molecule | Kd [1] | % Binding [2] | % Internalization (out of bound fraction) [3] | kidney uptake (% IA/g) [4] | tumor uptake (% IA/g) [4]
1 | CC[C@H](C)[C@H](NC(=O)[C@@H](NC(=O)[C@H](Cc1c[nH]c2ccccc12)NC(C)=O)[C@@H](C)O)C(=O)N[C@H]1CSSC[C@@H](C(=O)N[C@@H](Cc2c[nH]c3ccccc23)C(=O)N2CCC[C@H]2C(=O)N[C@H](CCCCNC(=O)CN2CCN(CC(=O)O)CCN(CC(=O)O)CCN(CC(=O)O)CC2)C(N)=O)NC(=O)[C@H](CC(=O)O)NC(=O)[C@H](Cc2cnc[nH]2)NC(=O)[C@H](Cc2ccc3ccccc3c2)NC(=O)[C@H](CC(N)=O)NC(=O)[C@H](Cc2cccnc2)NC1=O [compound 263, Ac-W-T-I-C(3)-(3Pya)-N-(2Nal)-H-D-C(3)-W-P-[D-Lys(DOTA)]-NH2] (Ac-WTIC[3Pal]N[2Nal]HDCWP[dK](DOTA)-NH2; disulfide 4-10) | < 1 nM | A (%≤25) | B (25<%≤50) | C (0 < % IA/g ≤ 10 in kidney) | A (0 < % IA/g ≤ 5 in tumor)
2 | CC[C@H](C)[C@H](NC(=O)[C@@H](NC(=O)[C@H](Cc1c[nH]c2ccccc12)NC(C)=O)[C@@H](C)O)C(=O)N[C@H]1CSSC[C@@H](C(=O)N[C@@H](Cc2c[nH]c3ccccc23)C(=O)N2CCC[C@H]2C(=O)N[C@H](CCCCNC(=O)CN2CCN(CC(=O)O)CCN(CC(=O)O)CCN(CC(=O)O)CC2)C(N)=O)NC(=O)[C@H](CC(=O)O)NC(=O)[C@H](Cc2cnc[nH]2)NC(=O)[C@H](Cc2ccc3ccccc3c2)NC(=O)[C@H](CC(N)=O)NC(=O)[C@H](Cc2ccncc2)NC1=O [compound 264, Ac-W-T-I-C(3)-(4Pya)-N-(2Nal)-H-D-C(3)-W-P-[D-Lys(DOTA)]-NH2] (Ac-WTIC[4Pal]N[2Nal]HDCWP[dK](DOTA)-NH2; disulfide 4-10) | < 1 nM | A (%≤25) | B (25<%≤50) | C (0 < % IA/g ≤ 10 in kidney) | A (0 < % IA/g ≤ 5 in tumor)
3 | CC[C@H](C)[C@H](NC(=O)[C@@H](NC(=O)[C@H](Cc1c[nH]c2ccccc12)NC(C)=O)[C@@H](C)O)C(=O)N[C@H]1CSSC[C@@H](C(=O)N[C@@H](Cc2c[nH]c3ccccc23)C(=O)N2CCC[C@H]2C(=O)N[C@H](CCCCNC(=O)CN2CCN(CC(=O)O)CCN(CC(=O)O)CCN(CC(=O)O)CC2)C(N)=O)NC(=O)[C@H](CC(=O)O)NC(=O)[C@H](Cc2cnc[nH]2)NC(=O)[C@H](Cc2ccc3ccccc3c2)NC(=O)[C@H](Cc2ccncc2)NC(=O)[C@H](CC(N)=O)NC1=O [compound 266, Ac-W-T-I-C(3)-N-(4Pya)-(2Nal)-H-D-C(3)-W-P-[D-Lys(DOTA)]-NH2] (Ac-WTICN[4Pal][2Nal]HDCWP[dK](DOTA)-NH2; disulfide 4-10) | < 1 nM | A (%≤25) | A (%≤25) | C (0 < % IA/g ≤ 10 in kidney) | A (0 < % IA/g ≤ 5 in tumor)
4 | CC[C@H](C)[C@H](NC(=O)[C@@H](NC(=O)[C@H](Cc1c[nH]c2ccccc12)NC(C)=O)[C@@H](C)O)C(=O)N[C@H]1CSSC[C@@H](C(=O)N[C@@H](Cc2c[nH]c3ccccc23)C(=O)N2CCC[C@H]2C(=O)N[C@H](CCCCNC(=O)CN2CCN(CC(=O)O)CCN(CC(=O)O)CCN(CC(=O)O)CC2)C(N)=O)NC(=O)[C@H](CC(=O)O)NC(=O)[C@H](Cc2cnc[nH]2)NC(=O)[C@H](Cc2ccc3ccccc3c2)NC(=O)[C@H](CC2CCNCC2)NC(=O)[C@H](CC(N)=O)NC1=O [compound 267, Ac-W-T-I-C(3)-N-[3-(4-piperidinyl)-Ala]-(2Nal)-H-D-C(3)-W-P-[D-Lys(DOTA)]-NH2] (Ac-WTICN[Ala(piperidin-4-yl)][2Nal]HDCWP[dK](DOTA)-NH2; disulfide 4-10) | < 1 nM | A (%≤25) | B (25<%≤50) | C (0 < % IA/g ≤ 10 in kidney) | A (0 < % IA/g ≤ 5 in tumor)
5 | Ac-(5Fluoro-W)-T-(CHA)-C(3)-N-N-(2Nal)-H-D-C(3)-(7Aza-W)-(trans4Fluoro-P)-[D-Lys(DOTA)]-NH2 [compound 245] | < 1 nM | A (%≤25) | B (25<%≤50) | D (% IA/g > 10 in kidney) | A (0 < % IA/g ≤ 5 in tumor)
